18 compounds from patent publication US9670227B2, “Thienopyrimidine derivatives, a process for their preparation and pharmaceutical compositions containing them” (LES LABORATOIRES SERVIER, priority 2013, dated 2017) can be followed below.

The structures appear in SMILES notation. Read-outs that look alike come from different tables or passages of the source.

One test addresses Mcl-1 protein (UniProtKB primary accession number: Q07820) (Homo sapiens, UniProt Q07820). Description: Inhibition of Mcl-1 by fluorescence polarisation, Method 1. Format: binding. The conditions noted are these: read-out: IC50 (M) Mcl-1 FP. The method, boiled down:
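Binding was measured as fluorescence polarisation of a fluorescein-labelled ligand (1 nM) displaced from Mcl-1 (5 nM), both final. Compounds ran as 11-point series with final DMSO at 5%.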
For orientation: In fluorescence polarisation assays a small probe gives low polarisation when free and higher when bound to something large.

Test [1] deals with H929 multiple myeloma tumour line. Description: In vitro cytotoxicity, Microculture Tetrazolium Assay. Format: cell-based. The conditions noted are these: H929 cells, 48 hours exposure, read-out: IC50 (μM) MTT H929. How it is done: The cytotoxicity studies were carried out on the H929 multiple myeloma tumour line.
The cells are distributed onto microplates and exposed to the test compounds for 48 hours.

Setting [2] is: fluorescence polarisation test, Method 2 values are underlined in the patent (underlining not visible here).
Setting [3] is: Homo sapiens, NCI-H929, 48 h, MTT.
Setting [4] is: fluorescence polarisation, Method 1, or Method 2.

Sequence of Mcl-1 protein (Q07820 whole entry): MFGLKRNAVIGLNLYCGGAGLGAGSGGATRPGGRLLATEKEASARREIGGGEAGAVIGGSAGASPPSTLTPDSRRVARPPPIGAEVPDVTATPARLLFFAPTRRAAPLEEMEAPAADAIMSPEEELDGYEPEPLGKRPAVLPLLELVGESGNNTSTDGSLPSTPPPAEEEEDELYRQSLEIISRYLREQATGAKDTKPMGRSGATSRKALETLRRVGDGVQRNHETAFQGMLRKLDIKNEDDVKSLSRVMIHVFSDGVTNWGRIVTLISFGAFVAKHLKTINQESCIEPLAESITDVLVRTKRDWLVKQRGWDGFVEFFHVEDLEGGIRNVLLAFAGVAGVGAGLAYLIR

Usually IC50 stands for the concentration that inhibits the measured activity by half. With `Cc1c(-c2c(-c3ccco3)sc3ncnc(OC(Cc4ccccc4OCc4cnnn4Cc4ccccc4)C(=O)O)c23)ccc(OCCN2CCN(C)CC2)c1Cl` [Example 295, (2R)-3-{2-[(1-benzyl-1H-1,2,3-triazol-5-yl)methoxy]phenyl}-2-{[(5Sa)-5-{3-chloro-2-methyl-4-[2-(4-methylpiperazin-1-yl)ethoxy]phenyl}-6-(furan-2-yl)thieno[2,3-d]pyrimidin-4-yl]oxy}propanoic acid], the results for the half-maximal inhibitory concentration (IC50) (on Mcl-1 protein (setting [2]); in test [1] (setting [3])) were 4.7e-09 M and 0.021 µM, respectively.
With `COc1ccccc1CC(Oc1ncnc2sc(-c3ccco3)c(-c3ccc(OCCN4CCN(C(C)C)CC4)c(Cl)c3C)c12)C(=O)O` [Example 324, (2R)-2-{[(5Sa)-5-(3-chloro-2-methyl-4-{2-[4-(propan-2-yl)piperazin-1-yl]ethoxy}phenyl)-6-(furan-2-yl)thieno[2,3-d]pyrimidin-4-yl]oxy}-3-(2-methoxyphenyl)propanoic acid], the IC50 worked out at 1.5e-08 M at Mcl-1 protein (setting [2]) and 0.254 µM in test [1] (setting [3]).
Regarding `COc1ccccc1CC(Oc1ncnc2sc(-c3cccc(Cl)c3F)c(-c3ccc(OCCN4CCN(C)CC4)c(Cl)c3C)c12)C(=O)O` [Example 559, (2R)-2-{[6-(3-chloro-2-fluorophenyl)-(5Sa)-5-{3-chloro-2-methyl-4-[2-(4-methylpiperazin-1-yl)ethoxy]phenyl}thieno[2,3-d]pyrimidin-4-yl]oxy}-3-(2-methoxyphenyl)propanoic acid], the 50% inhibitory concentration (IC50) stood at 5.2e-09 M at Mcl-1 protein (setting [4]) and 0.293 µM in test [1] (setting [3]).
Turning to `Cc1c(-c2c(-c3ccco3)sc3ncnc(O[C@H](Cc4ccccc4OCc4cc(C5CC5)nn4C)C(=O)O)c23)ccc(OCCN2CCN(C)CC2)c1Cl` [Example 226, (2R)-2-{[(5Sa)-5-{3-chloro-2-methyl-4-[2-(4-methylpiperazin-1-yl)ethoxy]phenyl}-6-(furan-2-yl)thieno[2,3-d]pyrimidin-4-yl]oxy}-3-{2-[(3-cyclopropyl-1-methyl-1H-pyrazol-5-yl)methoxy]phenyl}propanoic acid], the IC50 at Mcl-1 protein (setting [2]) came out at 2.4e-08 M; in test [1] (MTT), 0.311 µM.
As to `Cc1c(-c2c(-c3cc4ccccc4s3)sc3ncnc(OC(Cc4ccccc4)C(=O)O)c23)ccc(OCCN2CCN(C)CC2)c1Cl` [Example 497, (2R)-2-{[6-(1-benzothiophen-2-yl)-(5Sa)-5-{3-chloro-2-methyl-4-[2-(4-methylpiperazin-1-yl)ethoxy]phenyl}thieno[2,3-d]pyrimidin-4-yl]oxy}-3-phenylpropanoic acid], the figures for the IC50 (at Mcl-1 protein (setting [4]); in test [1] (setting [3])) were 9.1e-07 M and 5.95 µM, respectively.
With `CCCCn1nccc1COc1ccccc1CC(Oc1ncnc2sc(C#CCOC)c(-c3ccc(OCCN4CCN(C)CC4)c(Cl)c3C)c12)C(=O)O` [Example 613, (2R)-3-{2-[(1-butyl-1H-pyrazol-5-yl)methoxy]phenyl}-2-{[(5Sa)-5-{3-chloro-2-methyl-4-[2-(4-methylpiperazin-1-yl)ethoxy]phenyl}-6-(3-methoxyprop-1-yn-1-yl)thieno[2,3-d]pyrimidin-4-yl]oxy}propanoic acid], the figures for the IC50 (on Mcl-1 protein (setting [4]); in test [1] (setting [3])) were 3.5e-09 M and 0.158 µM, respectively.
For `CCCCn1nccc1COc1ccccc1CC(Oc1ncnc2sc(-c3ccc(OCCOC)nc3)c(-c3ccc(OCCN4CCN(C)CC4)c(Cl)c3C)c12)C(=O)O` [Example 622, (2R)-3-{2-[(1-butyl-1H-pyrazol-5-yl)methoxy]phenyl}-2-[((5Sa)-5-{3-chloro-2-methyl-4-[2-(4-methylpiperazin-1-yl)ethoxy]phenyl}-6-[6-(2-methoxyethoxy)pyridin-3-yl]thieno[2,3-d]pyrimidin-4-yl)oxy]propanoic acid], the IC50 at Mcl-1 protein (setting [4]) is 1.1e-08 M; in test [1] (setting [3]), 0.109 µM.
Regarding `COc1ccccc1-c1nccc(COc2ccccc2CC(Oc2ncnc3sc(-c4ccc(F)cc4)c(-c4ccc(OCCN5CCN(C)CC5)c(Cl)c4C)c23)C(=O)Oc2ccc3c(c2)CCC3)n1` [Example 809, 2,3-dihydro-1H-inden-5-yl (2R)-2-{[(5Sa)-5-{3-chloro-2-methyl-4-[2-(4-methylpiperazin-1-yl)ethoxy]phenyl}-6-(4-fluorophenyl)thieno[2,3-d]pyrimidin-4-yl]oxy}-3-(2-{[2-(2-methoxyphenyl)pyrimidin-4-yl]methoxy}phenyl)propanoate], the IC50 at Mcl-1 protein (fluorescence polarisation test, Method 1, or Method 2 where the value is underlined (underlining not visible)) came to 6.91e-07 M; in test [1] (Homo sapiens, NCI-H929, 48 h, cell viability), 0.047 µM.
In the case of `CCCCc1nccc(COc2ccccc2CC(Oc2ncnc3sc(-c4ccc(F)cc4)c(-c4ccc(OCCN5CCN(C)CC5)c(Cl)c4C)c23)C(=O)O)n1` [Example 42, (2R)-3-{2-[(2-butylpyrimidin-4-yl)methoxy]phenyl}-2-{[(5Sa)-5-{3-chloro-2-methyl-4-[2-(4-methylpiperazin-1-yl)ethoxy]phenyl}-6-(4-fluorophenyl)thieno[2,3-d]pyrimidin-4-yl]oxy}propanoic acid], the IC50 amounted to 3.2e-09 M on Mcl-1 protein (setting [2]) and 0.012 µM in test [1] (setting [3]).
`CCCCn1nccc1COc1ccccc1CC(Oc1ncnc2sc(-c3ccn(C)n3)c(-c3ccc(OCCN4CCN(C)CC4)c(Cl)c3C)c12)C(=O)O` [Example 610, (2R)-3-{2-[(1-butyl-1H-pyrazol-5-yl)methoxy]phenyl}-2-{[(5Sa)-5-{3-chloro-2-methyl-4-[2-(4-methylpiperazin-1-yl)ethoxy]phenyl}-6-(1-methyl-1H-pyrazol-3-yl)thieno[2,3-d]pyrimidin-4-yl]oxy}propanoic acid]: the IC50 on Mcl-1 protein (setting [4]) was determined as 3.5e-09 M; in test [1] (setting [3]), 0.091 µM.
`COc1ccccc1CC(Oc1ncnc2sc(-c3cccc(C#N)c3)c(-c3ccc(OCCN4CCN(C)CC4)c(Cl)c3C)c12)C(=O)O` [Example 548, (2R)-2-{[(5Sa)-5-{3-chloro-2-methyl-4-[2-(4-methylpiperazin-1-yl)ethoxy]phenyl}-6-(3-cyanophenyl)thieno[2,3-d]pyrimidin-4-yl]oxy}-3-(2-methoxyphenyl)propanoic acid]: the half-maximal inhibitory concentration (IC50) on Mcl-1 protein (setting [4]) amounted to 1.8e-08 M; in test [1] (setting [3]), 0.497 µM.
For the compound `CCOc1ccccc1CC(Oc1ncnc2sc(-c3ccco3)c(-c3ccc(OCCN4CCN(C)CC4)c(Cl)c3C)c12)C(=O)O` [Example 215, (2R)-2-{[(5Sa)-5-{3-chloro-2-methyl-4-[2-(4-methylpiperazin-1-yl)ethoxy]phenyl}-6-(furan-2-yl)thieno[2,3-d]pyrimidin-4-yl]oxy}-3-(2-ethoxyphenyl)propanoic acid], the IC50 on Mcl-1 protein (setting [2]) is 8e-09 M; in test [1] (setting [3]), 0.203 µM.
Turning to `COc1ccccc1CC(Oc1ncnc2sc(-c3ccco3)c(-c3ccc(OC4CCN(C)C4)c(Cl)c3C)c12)C(=O)O` [Example 303, (2R)-2-{[(5Sa)-5-{3-chloro-2-methyl-4-[(1-methylpyrrolidin-3-yl)oxy]phenyl}-6-(furan-2-yl)thieno[2,3-d]pyrimidin-4-yl]oxy}-3-(2-methoxyphenyl)propanoic acid], the values for the IC50 (at Mcl-1 protein (setting [2]); in test [1] (setting [3])) were 9.3e-09 M and 0.998 µM, respectively.
Regarding `Cc1c(-c2c(-c3ccc(F)cc3)sc3ncnc(OC(Cc4ccccc4OCc4ccnn4C(C)C)C(=O)O)c23)ccc(OCCN(C)C)c1Cl` [Example 752, (2R)-2-{[(5Sa)-5-{3-chloro-4-[2-(dimethylamino)ethoxy]-2-methylphenyl}-6-(4-fluorophenyl)thieno[2,3-d]pyrimidin-4-yl]oxy}-3-(2-{[1-(propan-2-yl)-1H-pyrazol-5-yl]methoxy}phenyl)propanoic acid], the IC50 on Mcl-1 protein (setting [4]) is 5.5e-09 M; in test [1] (setting [3]), 0.084 µM.
In the case of `Cc1c(-c2c(-c3ccc(F)cc3)sc3ncnc(OC(Cc4ccccc4OCc4ccnc(-c5ccoc5)n4)C(=O)O)c23)ccc(OCCN2CCN(C)CC2)c1Cl` [Example 35, (2R)-2-{[(5Sa)-5-{3-chloro-2-methyl-4-[2-(4-methylpiperazin-1-yl)ethoxy]phenyl}-6-(4-fluorophenyl)thieno[2,3-d]pyrimidin-4-yl]oxy}-3-(2-{[2-(furan-3-yl)pyrimidin-4-yl]methoxy}phenyl)propanoic acid], the IC50 on Mcl-1 protein (setting [2]) came to 4.8e-09 M; in test [1] (setting [3]), 0.027 µM.
As for `Cc1c(-c2c(-c3ccc(F)cc3)sc3ncnc(OC(Cc4ccccc4OCc4ccnc(-n5ccnn5)n4)C(=O)O)c23)ccc(OCCN2CCN(C)CC2)c1Cl` [Example 51, (2R)-2-{[(5Sa)-5-{3-chloro-2-methyl-4-[2-(4-methylpiperazin-1-yl)ethoxy]phenyl}-6-(4-fluorophenyl)thieno[2,3-d]pyrimidin-4-yl]oxy}-3-(2-{[2-(1H-1,2,3-triazol-1-yl)pyrimidin-4-yl]methoxy}phenyl)propanoic acid], the IC50 on Mcl-1 protein (setting [2]) turned out to be 3.5e-09 M; in test [1] (setting [3]) it was 0.038 µM.
As to `Cc1c(-c2c(-c3ccc(OCc4ccn(C)n4)cc3)sc3ncnc(OC(Cc4ccccc4OCc4ccnn4CC(F)(F)F)C(=O)O)c23)ccc(OCCN2CCN(C)CC2)c1Cl` [Example 779, (2R)-2-[((5Sa)-5-{3-chloro-2-methyl-4-[2-(4-methylpiperazin-1-yl)ethoxy]phenyl}-6-{4-[(1-methyl-1H-pyrazol-3-yl)methoxy]phenyl}thieno[2,3-d]pyrimidin-4-yl)oxy]-3-(2-{[1-(2,2,2-trifluoroethyl)-1H-pyrazol-5-yl]methoxy}phenyl)propanoic acid], the half-maximal inhibitory concentration (IC50) came out at 1.86e-09 M on Mcl-1 protein (setting [4]) and 0.056 µM in test [1] (setting [3]).
Turning to `COc1cc(COc2ccccc2CC(Oc2ncnc3sc(-c4ccc(F)cc4)c(-c4ccc(OCCN5CCN(C)CC5)c(Cl)c4C)c23)C(=O)O)nc(-c2ccccc2)n1` [Example 7, (2R)-2-{[(5Sa)-5-{3-chloro-2-methyl-4-[2-(4-methylpiperazin-1-yl)ethoxy]phenyl}-6-(4-fluorophenyl)thieno[2,3-d]pyrimidin-4-yl]oxy}-3-{2-[(6-methoxy-2-phenylpyrimidin-4-yl)methoxy]phenyl}propanoic acid], the IC50 on Mcl-1 protein (setting [2]) was 8.6e-09 M; in test [1] (setting [3]), 0.066 µM.
